Measurements: patent US10065965B2, “Imidazo[1,2-B][1,2,4]triazine derivatives as antiparasitic agents” (GlaxoSmithKline Intellectual Property Development Limited, priority 2015, dated 2018)
≈ marks a conversion by molar mass, not a printed value.

Assays:
Trypanosoma cruzi = experiment: Assay 6 Trypanosoma cruzi intracellular assay (infected H9C2 cells); format: cell-based; settings: H9c2, in Rattus norvegicus, 72 h, infected H9C2 rat cardiomyocytes, read-out: pEC50 value against Trypanosoma cruzi (converted)
Protocol: Compounds were dispensed into black 384-well assay plates (Greiner) by acoustic dispensing (LabCyte ECHO). For potency determinations, eleven-point, one in three dilution curves were generated, with a top concentration of 50 μM. H9C2 rat cardiomyocytes cells were dispensed in T225 tissue culture flasks and after 4 hours they were infected during 18 hours with T. cruzi trypomastigotes in the same T225 tissue culture flasks at a multiplicity of infection of 1. Next, any remaining free trypomastigotes were washed away with PBS and the infected H9C2 cells were harvested by trypsinisation. The infected H9C2 cells were then plated into 384-well plates containing the compounds to be tested, at 2500 cells per well in DMEM media with 2% FBS, 1% Penicillin/Streptomocin, 2 mM L-Glutamine, 1 mM Na Pyruvate and 25 mM HEPES. After 72 h incubation at 37° C. in presence of 5% CO2, the plates were fixed and stained with 4% formaldehyde and 2 μM Draq5 for 3 hours at room temperature. The plates were imaged on a Perkin Elmer Opera high-content imaging system using a 20× air objective. Images were analysed using the Acapella building blocks system (Perkin Elmer). The image analysis algorithm first identified the H9C2 nuclei followed by demarcation of the cytoplasm and identification of intracellular amastigotes. This algorithm reported mean number of parasites per H9C2 cell, the percentage of infected H9C2 cells and the total number of H9C2 cells.

[1] = Assay 4 solubility assay, ChemiLuminescent Nitrogen Detection (CLND); format: physicochemical; settings: phosphate buffered saline, pH 7.4, aqueous buffer, kinetic from dmso stock, pH 7.4 PBS, from 10 mM DMSO stock, 1 h at room temperature
Protocol: A 10 mM DMSO stock solution of the compound was prepared. Solvents and Buffers Organic solvents of HPLC grade were used. Ultra pure water (Milli-Q grade) was used. Buffers were prepared with ultra pure water and filtered using 0.45μ cameo filters. Aqueous Buffer Solution: Phosphate Buffer Saline (PBS) @ pH 7.4 was prepared from Sigma dry powder packs, P-3813. Each one was diluted to 1 liter with deionised water. The pH was checked before the solution was used II. Procedures. • a) DMSO concentration was measured. DMSO blanks and ondansetron and caffeine standards were added to the plate (column 12, A, B, C, & D for the blanks and E, F, G, & H for the standards). Plates were covered with foil. When the UV and CLND detectors baselines appeared to be stable, the CLND was zeroed. • b) Once DMSO concentration measurements were complete, a filtration plate was prepared from each parent plate by diluting 5 μl of the 10 mM DMSO stock solution to […] with pH7.4 PBS. • c) After the plates were prepared, they were covered with a plate lid and left to incubate for 1 h at room temperature. • d) Sample was filtered using MILLIPORE MultiScreen Solubility (MSSLBPC10) Filtration Plates, to NUNC V well plates. The filter plate was removed and the NUNC plate was sealed with a power seal plate seal. • e) HPLC/CLND instruments were set up and left to equilibrate. Mobile phases (MeOH:H2O 1:1, flow rate: 0.2 ml/min, sensitivity z10, Gain High). The samples were run. • f) The assay curve fit was done by linear regression and solubility values were reported in μM.

`O=C(Nc1ccc(F)c(-c2cn3nc(C4CCOC4)cnc3n2)c1)N1CCCC1` (racemic) [Example 23, (+,−)-N-(4-fluoro-3-(2-(tetrahydrofuran-3-yl)imidazo[1,2-b] [1,2,4]triazin-6-yl)phenyl)pyrrolidine-1-carboxamide] showed an EC50 (Trypanosoma cruzi) of 5.01 to 631 nM.

`CC(O)c1cnc2nc(-c3cc(NC(=O)N4CCCC4)ccc3F)cn2n1` (racemic) [Example 24, (+,−)-N-(4-fluoro-3-(2-(1-hydroxyethyl)imidazo [1,2-b][1,2,4]triazin-6-yl)phenyl)pyrrolidine-1-carboxamide] gave a solubility at 1 h [1] of 100 to 416 µM (≈ 37 to 154 µg/mL) and an EC50 (Trypanosoma cruzi) of 5.01 to 631 nM.

`O=C(Nc1ccc(F)c(-c2cn3nc(N4CCCOCC4)cnc3n2)c1)N1CCCC1` [Example 11, N-(3-(2-(1,4-oxazepan-4-yl)imidazo[1,2-b][1,2,4]triazin-6-yl)-4-fluorophenyl)pyrrolidine-1-carboxamide] showed an EC50 (Trypanosoma cruzi) of 5.01 to 631 nM.

For `O=C(Nc1ccc(F)c(-c2cn3nc(C4=CCOCC4)cnc3n2)c1)N1CCCC1` [Example 12, N-(3-(2-(3,6-dihydro-2H-pyran-4-yl)imidazo[1,2-b] [1,2,4]triazin-6-yl)-4-fluorophenyl)pyrrolidine-1-carboxamide], the solubility at 1 h [1] was 10 to 83 µM (≈ 4.08 to 33.9 µg/mL) and the EC50 (Trypanosoma cruzi) was 5.01 to 631 nM.

`CC(C)c1cnc2nc(-c3cc(NC(=O)N4CCCC4)ccc3F)cn2n1` [Example 13, N-(4-fluoro-3-(2-isopropylimidazo [1,2-b][1,2,4]triazin-6-yl)phenyl)pyrrolidine-1-carboxamide] gave a solubility at 1 h [1] of 100 to 416 µM (≈ 36.8 to 153 µg/mL) and an EC50 (Trypanosoma cruzi) of 5.01 to 631 nM.

For `C=C(C)c1cnc2nc(-c3cc(NC(=O)N4CCCC4)ccc3F)cn2n1` [Example 14, N-(4-fluoro-3-(2-(prop-1-en-2-yl)imidazo [1,2-b][1,2,4]triazin-6-yl)phenyl)pyrrolidine-1-carboxamide], the solubility at 1 h [1] was 10 to 83 µM (≈ 3.66 to 30.4 µg/mL) and the EC50 (Trypanosoma cruzi) was 5.01 to 631 nM.

For `O=C(Nc1ccc(F)c(-c2cn3nc(C4CCOCC4)cnc3n2)c1)N1CCCC1` [Example 15, N-(4-fluoro-3-(2-(tetrahydro-2H-pyran-4-yl)imidazo[1,2-b] [1,2,4]triazin-6-yl)phenyl)pyrrolidine-1-carboxamide], the solubility at 1 h [1] was 100 to 416 µM (≈ 41 to 171 µg/mL) and the EC50 (Trypanosoma cruzi) was 5.01 to 631 nM.

`O=C(Nc1ccc(F)c(-c2cn3nc(-c4ccc(OCCN5CCOCC5)cc4)cnc3n2)c1)N1CCCC1` [Example 17, N-(4-fluoro-3-(2-(4-(2-morpholinoethoxy)phenyl)imidazo[1,2-b][1,2,4]triazin-6-yl)phenyl) pyrrolidine-1-carboxamide] gave a solubility at 1 h [1] of 1 to 6 µM (≈ 0.532 to 3.19 µg/mL) and an EC50 (Trypanosoma cruzi) of 5.01 to 631 nM.

For `O=C(Nc1ccc(F)c(-c2cn3nc(-c4ccccc4CN4CCOCC4)cnc3n2)c1)N1CCCC1` [Example 20, N-(4-fluoro-3-(2-(2-(morpholinomethyl)phenyl)imidazo[1,2-b] [1,2,4]triazin-6-yl)phenyl)pyrrolidine-1-carboxamide], the solubility at 1 h [1] was 10 to 83 µM (≈ 5.02 to 41.6 µg/mL) and the EC50 (Trypanosoma cruzi) was 5.01 to 631 nM.

With `COCCOc1ccc(-c2cnc3nc(-c4cc(NC(=O)N5CCCC5)ccc4F)cn3n2)cc1` [Example 21, N-(4-fluoro-3-(2-(4-(2-methoxyethoxy)phenyl)imidazo[1,2-b][1,2,4]triazin-6-yl)phenyl) pyrrolidine-1-carboxamide] the EC50 (Trypanosoma cruzi) was 5.01 to 631 nM.

Molecule `O=C(Nc1ccc(F)c(-c2cn3nc(CCCO)cnc3n2)c1)N1CCCC1` [Example 25, N-(4-fluoro-3-(2-(3-hydroxypropyl)imidazo [1,2-b][1,2,4]triazin-6-yl)phenyl)pyrrolidine-1-carboxamide] has a solubility at 1 h [1] of 100 to 416 µM (≈ 38.4 to 160 µg/mL) and an EC50 (Trypanosoma cruzi) of 5.01 to 631 nM.

With `Cc1c(-c2cc(NC(=O)N3CCCC3)ccc2F)nc2ncc(N3CCOCC3)nn12` [Example 27, N-(4-fluoro-3-(7-methyl-2-morpholinoimidazo [1,2-b][1,2,4]triazin-6-yl)phenyl)pyrrolidine-1-carboxamide] the solubility at 1 h [1] was 100 to 416 µM (≈ 42.5 to 177 µg/mL) and the EC50 (Trypanosoma cruzi) was 5.01 to 631 nM.

In the case of `Cc1c(-c2cccc(NC(=O)N3CCCC3)c2)nc2ncc(N3CCOCC3)nn12` [Example 28, N-(3-(7-methyl-2-morpholinoimidazo [1,2-b][1,2,4]triazin-6-yl)phenyl)pyrrolidine-1-carboxamide], the solubility at 1 h [1] is reported as 100 to 416 µM (≈ 40.7 to 170 µg/mL) and the EC50 (Trypanosoma cruzi) is reported as 5.01 to 631 nM.

`COCCOc1ccccc1-c1cnc2nc(-c3cc(NC(=O)N4CCCC4)ccc3F)cn2n1` [Example 29, N-(4-fluoro-3-(2-(2-(2-methoxyethoxy)phenyl)imidazo[1,2-b][1,2,4]triazin-6-yl)phenyl) pyrrolidine-1-carboxamide] gave a solubility at 1 h [1] of 10 to 83 µM (≈ 4.77 to 39.6 µg/mL) and an EC50 (Trypanosoma cruzi) of 5.01 to 631 nM.

Molecule `COc1ccccc1-c1cnc2nc(-c3cc(NC(=O)N4CCCC4)ccc3F)cn2n1` [Example 30, N-(4-fluoro-3-(2-(2-methoxyphenyl)imidazo [1,2-b][1,2,4]triazin-6-yl)phenyl)pyrrolidine-1-carboxamide] has a solubility at 1 h [1] of 10 to 83 µM (≈ 4.32 to 35.9 µg/mL) and an EC50 (Trypanosoma cruzi) of 5.01 to 631 nM.

In the case of `O=C(Nc1ccc(F)c(-c2cn3nc(-c4ccccn4)cnc3n2)c1)N1CCCC1` [Example 35, N-(4-fluoro-3-(2-(pyridin-2-yl)imidazo[1,2-b] [1,2,4]triazin-6-yl)phenyl)pyrrolidine-1-carboxamide], the solubility at 1 h [1] is reported as 10 to 83 µM (≈ 4.03 to 33.5 µg/mL) and the EC50 (Trypanosoma cruzi) is reported as 5.01 to 631 nM.

With `CC(C)Cc1cnc2nc(-c3cc(NC(=O)N4CCCC4)ccc3F)cn2n1` [Example 36, N-(4-fluoro-3-(2-isobutyl-imidazo[1,2-b][1,2,4]triazin-6-yl)phenyl) pyrrolidine-1-carboxamide] the solubility at 1 h [1] was 10 to 83 µM (≈ 3.82 to 31.7 µg/mL) and the EC50 (Trypanosoma cruzi) was 5.01 to 631 nM.

With `O=C(Nc1ccc(F)c(-c2nc3ncc(N4CCOCC4)nn3c2F)c1)N1CCCC1` [Example 40, N-(4-fluoro-3-(7-fluoro-2-morpholinoimidazo [1,2-b][1,2,4]triazin-6-yl)phenyl)pyrrolidine-1-carboxamide] the solubility at 1 h [1] was 100 to 416 µM (≈ 42.9 to 179 µg/mL) and the EC50 (Trypanosoma cruzi) was 5.01 to 631 nM.

For `O=C(Nc1ccc(F)c(-c2cn3nc(N4CCOCC4)cnc3n2)c1)N1CCC1` [Example 42, N-(4-fluoro-3-(2-morpholinoimidazo [1,2-b][1,2,4]triazin-6-yl)phenyl)azetidine-1-carboxamide], the solubility at 1 h [1] was 100 to 416 µM (≈ 39.7 to 165 µg/mL) and the EC50 (Trypanosoma cruzi) was 5.01 to 631 nM.

With `O=C(Nc1ccc(Cl)c(-c2cn3nc(N4CCOCC4)cnc3n2)c1)N1CCCC1` [Example 43, N-(4-chloro-3-(2-morpholinoimidazo[1,2-b][1,2,4]triazin-6-yl)phenyl)pyrrolidine-1-carboxamide] the solubility at 1 h [1] was 10 to 83 µM (≈ 4.28 to 35.5 µg/mL) and the EC50 (Trypanosoma cruzi) was 5.01 to 631 nM.

In the case of `CC(=O)c1cnc2nc(-c3cc(NC(=O)N4CCCC4)ccc3F)cn2n1` [Example 46, N-(3-(2-acetylimidazo [1,2-b][1,2,4]triazin-6-yl)-4-fluorophenyl) pyrrolidine-1-carboxamide], the solubility at 1 h [1] is reported as 100 to 416 µM (≈ 36.8 to 153 µg/mL) and the EC50 (Trypanosoma cruzi) is reported as 5.01 to 631 nM.

`CC(C)=Cc1cnc2nc(-c3cc(NC(=O)N4CCCC4)ccc3F)cn2n1` [Example 47, N-(4-fluoro-3-(2-(2-methylprop-1-en-1-yl)imidazo[1,2-b][1,2,4]triazin-6-yl)phenyl) pyrrolidine-1-carboxamide] showed a solubility at 1 h [1] of 10 to 83 µM (≈ 3.8 to 31.6 µg/mL) and an EC50 (Trypanosoma cruzi) of 5.01 to 631 nM.

Work on `O=C(Nc1cnc2nc(-c3cc(NC(=O)N4CCCC4)ccc3F)cn2n1)C1CCCO1` (stereo not shown) [Example 49, N-(4-fluoro-3-(2-(tetra-hydrofuran-2-carboxamido)imidazo [1,2-b][1,2,4]triazin-6-yl)phenyl)pyrrolidine-1-carboxamide] yielded a solubility at 1 h [1] of 10 to 83 µM (≈ 4.39 to 36.5 µg/mL) and an EC50 (Trypanosoma cruzi) of 5.01 to 631 nM.

`CC(C)OC(=O)Nc1cnc2nc(-c3cc(NC(=O)N4CCCC4)ccc3F)cn2n1` [Example 54, isopropyl (6-(2-fluoro-5-(pyrrolidine-1-carboxamido)phenyl)imidazo[1,2-b][1,2,4]triazin-2-yl)carbamate] showed a solubility at 1 h [1] of 10 to 83 µM (≈ 4.27 to 35.5 µg/mL) and an EC50 (Trypanosoma cruzi) of 5.01 to 631 nM.

For `COC(=O)Nc1cnc2nc(-c3cc(NC(=O)N4CCCC4)ccc3F)cn2n1` [Example 55, methyl (6-(2-fluoro-5-(pyrrolidine-1-carboxamido)phenyl)imidazo[1,2-b][1,2,4]triazin-2-yl)carbamate], the solubility at 1 h [1] was 10 to 83 µM (≈ 3.99 to 33.1 µg/mL) and the EC50 (Trypanosoma cruzi) was 5.01 to 631 nM.

`O=C(Nc1ccc(F)c(-c2cn3nc(N4CCNCC4)cnc3n2)c1)N1CCCC1` [Example 56, N-(4-fluoro-3-(2-(piperazin-1-yl)imidazo [1,2-b][1,2,4]triazin-6-yl)phenyl)pyrrolidine-1-carboxamide] gave a solubility at 1 h [1] of 100 to 416 µM (≈ 41 to 171 µg/mL) and an EC50 (Trypanosoma cruzi) of 5.01 to 631 nM.
